Test results: US3984393A, “Aminoglycoside antibiotics” (The Upjohn Company, priority 1975, dated 1976)
≈ marks a conversion by molar mass, not a printed value. Where two headings read alike, the source gives them in different places.

Legend:
S. aureus UC 746 = assay: standard microplate test in BHI Agar (MIC), S. aureus UC 746; assay type: cell-based; settings: Staphylococcus aureus, UC746, 20 h, 37°, first table, read-out: Minimum Inhibitory Concentration
Procedure: (§1) Compounds were also tested in a standard microplate test in Brain Heart Infusion (BHI) Agar, at a concentration of 1 mg/ml. Incubation is at 37° and end points are read at 20 hours. Brain Heart Infusion Agar (supplied by Difco Laboratories, Detroit, Michigan, U.S.A.) has the following composition: […]

St. faecalis UC 694 = assay: standard microplate test in BHI Agar (MIC), St. faecalis UC 694; assay type: cell-based; settings: Enterococcus faecalis, UC694, 20 h
Outline: (§2)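 Test concentration 1 mg/ml, medium Brain Heart Infusion agar, microplate format. Incubation 37°, with the end point taken at 20 hours.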

Ps. aeruginosa UC 95 = assay: standard microplate test in BHI Agar (MIC), Ps. aeruginosa UC 95; assay type: cell-based; settings: Pseudomonas aeruginosa, UC95, 20 h, read-out: Minimum Inhibitory Concentration, Ps. aeruginosa UC 95
Outline: as §2

S. aureus UC 570 = assay: standard microplate test in BHI Agar (MIC), S. aureus UC 570; assay type: cell-based; settings: Staphylococcus aureus, UC570, 20 h, 37°, first table, read-out: Minimum Inhibitory Concentration
Procedure: as §1

P. vulgaris UC 93 = assay: standard microplate test in BHI Agar (MIC), P. vulgaris UC 93; assay type: cell-based; settings: Proteus vulgaris, UC93, 20 h, read-out: Minimum Inhibitory Concentration, P. vulgaris UC 93
Outline: as §2

P. mirabilis A-63 = assay: standard microplate test in BHI Agar (MIC), P. mirabilis A-63; assay type: cell-based
Outline: as §2

S. typhi TG-3 = assay: standard microplate test in BHI Agar (MIC), S. typhi TG-3; assay type: cell-based; settings: Salmonella enterica, 20 h, S. typhi TG-3, retest table, neamine control, read-out: Minimum Inhibitory Concentration
Outline: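 A standard microplate test on Brain Heart Infusion agar is run with compound at 1 mg/ml, incubated at 37°, and scored at 20 hours.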

S. aureus UC 76 = assay: standard microplate test in BHI Agar (MIC), S. aureus UC 76; assay type: cell-based, Staphylococcus aureus; settings: Staphylococcus aureus, UC76, 20 h
Outline: as §2

S. flexneri UC 143 = assay: standard microplate test in BHI Agar (MIC), S. flexneri UC 143; assay type: cell-based; settings: retest table, neamine control
Outline: as §2

P. rettgeri UC 339 = assay: standard microplate test in BHI Agar (MIC), P. rettgeri UC 339; assay type: cell-based; settings: Providencia rettgeri, UC339, 20 h, read-out: Minimum Inhibitory Concentration, P. rettgeri UC 339, retest table, neamine control
Outline: as §2

E. coli UC 45 = assay: standard microplate test in BHI Agar (MIC), E. coli UC 45; assay type: cell-based; settings: Escherichia coli, UC45, 20 h, read-out: Minimum Inhibitory Concentration, E. coli UC 45
Outline: as §2

S. marcescens UC 131 = assay: standard microplate test in BHI Agar (MIC), S. marcescens UC 131; assay type: cell-based; settings: Serratia marcescens, UC131, 20 h, read-out: Minimum Inhibitory Concentration, S. marcescens UC 131, retest table, neamine control
Outline: as §2

S. hemolyticus UC 152 = assay: standard microplate test in BHI Agar (MIC), S. hemolyticus UC 152; assay type: cell-based, Streptococcus hemolyticus; settings: Streptococcus pyogenes, UC152, 20 h, read-out: Minimum Inhibitory Concentration, S. hemolyticus UC 152
Outline: as §2

D. pneumoniae UC 41 = assay: standard microplate test in BHI Agar (MIC), D. pneumoniae UC 41; assay type: cell-based; settings: Streptococcus pneumoniae, UC41, 20 h, read-out: Minimum Inhibitory Concentration, D. pneumoniae UC 41
Outline: as §2

K. pneumoniae UC 58 = assay: standard microplate test in BHI Agar (MIC), K. pneumoniae UC 58; assay type: cell-based; settings: Klebsiella pneumoniae, UC58, 20 h, read-out: Minimum Inhibitory Concentration, K. pneumoniae UC 58
Outline: as §2

S. schottmuelleri UC 126 = assay: standard microplate test in BHI Agar (MIC), S. schottmuelleri UC 126; assay type: cell-based; settings: 20 h, read-out: Minimum Inhibitory Concentration
Procedure: Compounds were also tested in a standard microplate test in Brain Heart Infusion (BHI) Agar, at a concentration of 1 mg/ml. Incubation is at 37° and end points are read at 20 hours. Brain Heart Infusion Agar (supplied by Difco Laboratories, Detroit, Michigan, U.S.A.) has the following composition:
Compounds (7β), (7α) and (9) were tested again along with compounds (11) and (14β) against a neamine control using the same conditions as given above.

P. morgani UC 3186 = assay: standard microplate test in BHI Agar (MIC), P. morgani UC 3186; assay type: cell-based; settings: 20 h, read-out: Minimum Inhibitory Concentration, P. morgani UC 3186, retest table, neamine control
Outline: as §2

[1] = BHI agar, 37°, 20 h, first table
[2] = BHI agar, 37°, 20 h, first table, *run on different day
[3] = retest table, group (7β), (14β), neamine control
[4] = retest table, group (9), (11), (7α), neamine control

## NC[C@H]1O[C@H](O[C@H]2[C@H](O)[C@@H](O)[C@H](N)C[C@@H]2N)[C@H](N)[C@@H](O)[C@@H]1O [Neamine, reference compound]
S. aureus UC 746; *run on different day
  MIC: 62.5 µg/mL (≈ 194 µM)
S. aureus UC 746
  MIC: 250 µg/mL (≈ 776 µM)
St. faecalis UC 694; read-out: Minimum Inhibitory Concentration, S. faecalis UC 694, retest table, group (7β), (14β), neamine control
  MIC: 500 µg/mL (≈ 1550 µM)
St. faecalis UC 694; read-out: Minimum Inhibitory Concentration, S. faecalis UC 694, retest table, group (9), (11), (7α), neamine control
  MIC: 500 µg/mL (≈ 1550 µM)
St. faecalis UC 694; read-out: Minimum Inhibitory Concentration, St. faecalis UC 694, BHI agar, 37°, 20 h, first table
  MIC: 1000 µg/mL (≈ 3100 µM)
St. faecalis UC 694; read-out: Minimum Inhibitory Concentration, St. faecalis UC 694, BHI agar, 37°, 20 h, first table, *run on different day
  MIC: 500 µg/mL (≈ 1550 µM)
Ps. aeruginosa UC 95; [1]
  MIC: > 1000 µg/mL
Ps. aeruginosa UC 95; [2]
  MIC: > 1000 µg/mL
Ps. aeruginosa UC 95; [3]
  MIC: 1000 µg/mL (≈ 3100 µM)
Ps. aeruginosa UC 95; [4]
  MIC: 1000 µg/mL (≈ 3100 µM)
S. aureus UC 570; *run on different day
  MIC: 62.5 µg/mL (≈ 194 µM)
S. aureus UC 570
  MIC: 250 µg/mL (≈ 776 µM)
P. vulgaris UC 93; [1]
  MIC: 250 µg/mL (≈ 776 µM)
P. vulgaris UC 93; [2]
  MIC: 125 µg/mL (≈ 388 µM)
P. vulgaris UC 93; [3]
  MIC: 62.5 µg/mL (≈ 194 µM)
P. vulgaris UC 93; [4]
  MIC: 15.6 µg/mL (≈ 48.4 µM)
P. mirabilis A-63; P. mirabilis A-63, retest table, group (7β), (14β), neamine control
  Minimum Inhibitory Concentration: 250 µg/mL
P. mirabilis A-63; Proteus mirabilis, A63, 20 h, read-out: Minimum Inhibitory Concentration
  MIC: 250 µg/mL (≈ 776 µM)
S. typhi TG-3; group (7β), (14β)
  MIC: 15.6 µg/mL (≈ 48.4 µM)
S. typhi TG-3; group (9), (11), (7α)
  MIC: 31.2 µg/mL (≈ 96.8 µM)
S. aureus UC 76; read-out: Minimum Inhibitory Concentration, S. aureus 284 UC 76, BHI agar, 37°, 20 h, first table
  MIC: 125 µg/mL (≈ 388 µM)
S. aureus UC 76; read-out: Minimum Inhibitory Concentration, S. aureus 284 UC 76, BHI agar, 37°, 20 h, first table, *run on different day
  MIC: 62.5 µg/mL (≈ 194 µM)
S. aureus UC 76; read-out: Minimum Inhibitory Concentration, S. aureus UC 76, retest table, group (7β), (14β), neamine control
  MIC: 31.2 µg/mL (≈ 96.8 µM)
S. aureus UC 76; read-out: Minimum Inhibitory Concentration, S. aureus UC 76, retest table, group (9), (11), (7α), neamine control
  MIC: 31.2 µg/mL (≈ 96.8 µM)
S. flexneri UC 143; Shigella flexneri, UC143, 20 h, group (9), (11), (7α), read-out: Minimum Inhibitory Concentration
  MIC: 62.5 µg/mL (≈ 194 µM)
S. flexneri UC 143; group (7β), (14β)
  Minimum Inhibitory Concentration: 62.5 µg/mL
P. rettgeri UC 339; group (7β), (14β)
  MIC: 1000 µg/mL (≈ 3100 µM)
P. rettgeri UC 339; group (9), (11), (7α)
  MIC: 500 µg/mL (≈ 1550 µM)
E. coli UC 45; [1]
  MIC: 62.5 µg/mL (≈ 194 µM)
E. coli UC 45; [2]
  MIC: 125 µg/mL (≈ 388 µM)
E. coli UC 45; [3]
  MIC: 62.5 µg/mL (≈ 194 µM)
E. coli UC 45; [4]
  MIC: 62.5 µg/mL (≈ 194 µM)
S. marcescens UC 131; group (7β), (14β)
  MIC: 250 µg/mL (≈ 776 µM)
S. marcescens UC 131; group (9), (11), (7α)
  MIC: 125 µg/mL (≈ 388 µM)
S. hemolyticus UC 152; [1]
  MIC: 3.9 µg/mL (≈ 12.1 µM)
S. hemolyticus UC 152; [2]
  MIC: 7.8 µg/mL (≈ 24.2 µM)
S. hemolyticus UC 152; [3]
  MIC: 3.9 µg/mL (≈ 12.1 µM)
S. hemolyticus UC 152; [4]
  MIC: 2 µg/mL (≈ 6.2 µM)
D. pneumoniae UC 41; [1]
  MIC: > 1000 µg/mL
D. pneumoniae UC 41; [2]
  MIC: > 1000 µg/mL
D. pneumoniae UC 41; [3]
  MIC: 31.2 µg/mL (≈ 96.8 µM)
D. pneumoniae UC 41; [4]
  MIC: 62.5 µg/mL (≈ 194 µM)
K. pneumoniae UC 58; [1]
  MIC: 7.8 µg/mL (≈ 24.2 µM)
K. pneumoniae UC 58; [2]
  MIC: 15.6 µg/mL (≈ 48.4 µM)
K. pneumoniae UC 58; [3]
  MIC: 3.9 µg/mL (≈ 12.1 µM)
K. pneumoniae UC 58; [4]
  MIC: 7.8 µg/mL (≈ 24.2 µM)
S. schottmuelleri UC 126; BHI agar, 37°, first table, *run on different day
  MIC: 62.5 µg/mL (≈ 194 µM)
S. schottmuelleri UC 126; BHI agar, 37°, first table
  MIC: 62.5 µg/mL (≈ 194 µM)
S. schottmuelleri UC 126; [3]
  MIC: 31.2 µg/mL (≈ 96.8 µM)
S. schottmuelleri UC 126; [4]
  MIC: 62.5 µg/mL (≈ 194 µM)
P. morgani UC 3186; group (7β), (14β)
  MIC: 62.5 µg/mL (≈ 194 µM)
P. morgani UC 3186; group (9), (11), (7α)
  MIC: 31.2 µg/mL (≈ 96.8 µM)
